Measurements from patent publication US9586951B2 (FUJIFILM Corporation, priority 2013, dated 2017).
Like-named read-outs stand apart in the source and are kept apart here.

Biological target: T1, ATM (Homo sapiens, UniProt Q13315)
T1 construct: detecting phosphorylation of Chk2 in a human non-small cell lung cancer cell line NCI-H460 (ATCC company); host or cells: NCI-H460 human non-small cell lung cancer cells
Test: ATM inhibition test (phosphorylation of Chk2 generated by ionizing radiation, AlphaScreen SureFire)
Type: cell-based
Conditions: phosphorylated Chk2 in NCI-H460 cells, ionizing radiation 8Gy, 1 hour after test compound treatment
Outline: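 In NCI-H460 cells, radiation-triggered Chk2 phosphorylation (8Gy, 1 h) is detected by AlphaScreen SureFire following 1 h compound exposure.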

[1] = read-out: ATM inhibitory activity

T1 sequence (Q13315 whole entry): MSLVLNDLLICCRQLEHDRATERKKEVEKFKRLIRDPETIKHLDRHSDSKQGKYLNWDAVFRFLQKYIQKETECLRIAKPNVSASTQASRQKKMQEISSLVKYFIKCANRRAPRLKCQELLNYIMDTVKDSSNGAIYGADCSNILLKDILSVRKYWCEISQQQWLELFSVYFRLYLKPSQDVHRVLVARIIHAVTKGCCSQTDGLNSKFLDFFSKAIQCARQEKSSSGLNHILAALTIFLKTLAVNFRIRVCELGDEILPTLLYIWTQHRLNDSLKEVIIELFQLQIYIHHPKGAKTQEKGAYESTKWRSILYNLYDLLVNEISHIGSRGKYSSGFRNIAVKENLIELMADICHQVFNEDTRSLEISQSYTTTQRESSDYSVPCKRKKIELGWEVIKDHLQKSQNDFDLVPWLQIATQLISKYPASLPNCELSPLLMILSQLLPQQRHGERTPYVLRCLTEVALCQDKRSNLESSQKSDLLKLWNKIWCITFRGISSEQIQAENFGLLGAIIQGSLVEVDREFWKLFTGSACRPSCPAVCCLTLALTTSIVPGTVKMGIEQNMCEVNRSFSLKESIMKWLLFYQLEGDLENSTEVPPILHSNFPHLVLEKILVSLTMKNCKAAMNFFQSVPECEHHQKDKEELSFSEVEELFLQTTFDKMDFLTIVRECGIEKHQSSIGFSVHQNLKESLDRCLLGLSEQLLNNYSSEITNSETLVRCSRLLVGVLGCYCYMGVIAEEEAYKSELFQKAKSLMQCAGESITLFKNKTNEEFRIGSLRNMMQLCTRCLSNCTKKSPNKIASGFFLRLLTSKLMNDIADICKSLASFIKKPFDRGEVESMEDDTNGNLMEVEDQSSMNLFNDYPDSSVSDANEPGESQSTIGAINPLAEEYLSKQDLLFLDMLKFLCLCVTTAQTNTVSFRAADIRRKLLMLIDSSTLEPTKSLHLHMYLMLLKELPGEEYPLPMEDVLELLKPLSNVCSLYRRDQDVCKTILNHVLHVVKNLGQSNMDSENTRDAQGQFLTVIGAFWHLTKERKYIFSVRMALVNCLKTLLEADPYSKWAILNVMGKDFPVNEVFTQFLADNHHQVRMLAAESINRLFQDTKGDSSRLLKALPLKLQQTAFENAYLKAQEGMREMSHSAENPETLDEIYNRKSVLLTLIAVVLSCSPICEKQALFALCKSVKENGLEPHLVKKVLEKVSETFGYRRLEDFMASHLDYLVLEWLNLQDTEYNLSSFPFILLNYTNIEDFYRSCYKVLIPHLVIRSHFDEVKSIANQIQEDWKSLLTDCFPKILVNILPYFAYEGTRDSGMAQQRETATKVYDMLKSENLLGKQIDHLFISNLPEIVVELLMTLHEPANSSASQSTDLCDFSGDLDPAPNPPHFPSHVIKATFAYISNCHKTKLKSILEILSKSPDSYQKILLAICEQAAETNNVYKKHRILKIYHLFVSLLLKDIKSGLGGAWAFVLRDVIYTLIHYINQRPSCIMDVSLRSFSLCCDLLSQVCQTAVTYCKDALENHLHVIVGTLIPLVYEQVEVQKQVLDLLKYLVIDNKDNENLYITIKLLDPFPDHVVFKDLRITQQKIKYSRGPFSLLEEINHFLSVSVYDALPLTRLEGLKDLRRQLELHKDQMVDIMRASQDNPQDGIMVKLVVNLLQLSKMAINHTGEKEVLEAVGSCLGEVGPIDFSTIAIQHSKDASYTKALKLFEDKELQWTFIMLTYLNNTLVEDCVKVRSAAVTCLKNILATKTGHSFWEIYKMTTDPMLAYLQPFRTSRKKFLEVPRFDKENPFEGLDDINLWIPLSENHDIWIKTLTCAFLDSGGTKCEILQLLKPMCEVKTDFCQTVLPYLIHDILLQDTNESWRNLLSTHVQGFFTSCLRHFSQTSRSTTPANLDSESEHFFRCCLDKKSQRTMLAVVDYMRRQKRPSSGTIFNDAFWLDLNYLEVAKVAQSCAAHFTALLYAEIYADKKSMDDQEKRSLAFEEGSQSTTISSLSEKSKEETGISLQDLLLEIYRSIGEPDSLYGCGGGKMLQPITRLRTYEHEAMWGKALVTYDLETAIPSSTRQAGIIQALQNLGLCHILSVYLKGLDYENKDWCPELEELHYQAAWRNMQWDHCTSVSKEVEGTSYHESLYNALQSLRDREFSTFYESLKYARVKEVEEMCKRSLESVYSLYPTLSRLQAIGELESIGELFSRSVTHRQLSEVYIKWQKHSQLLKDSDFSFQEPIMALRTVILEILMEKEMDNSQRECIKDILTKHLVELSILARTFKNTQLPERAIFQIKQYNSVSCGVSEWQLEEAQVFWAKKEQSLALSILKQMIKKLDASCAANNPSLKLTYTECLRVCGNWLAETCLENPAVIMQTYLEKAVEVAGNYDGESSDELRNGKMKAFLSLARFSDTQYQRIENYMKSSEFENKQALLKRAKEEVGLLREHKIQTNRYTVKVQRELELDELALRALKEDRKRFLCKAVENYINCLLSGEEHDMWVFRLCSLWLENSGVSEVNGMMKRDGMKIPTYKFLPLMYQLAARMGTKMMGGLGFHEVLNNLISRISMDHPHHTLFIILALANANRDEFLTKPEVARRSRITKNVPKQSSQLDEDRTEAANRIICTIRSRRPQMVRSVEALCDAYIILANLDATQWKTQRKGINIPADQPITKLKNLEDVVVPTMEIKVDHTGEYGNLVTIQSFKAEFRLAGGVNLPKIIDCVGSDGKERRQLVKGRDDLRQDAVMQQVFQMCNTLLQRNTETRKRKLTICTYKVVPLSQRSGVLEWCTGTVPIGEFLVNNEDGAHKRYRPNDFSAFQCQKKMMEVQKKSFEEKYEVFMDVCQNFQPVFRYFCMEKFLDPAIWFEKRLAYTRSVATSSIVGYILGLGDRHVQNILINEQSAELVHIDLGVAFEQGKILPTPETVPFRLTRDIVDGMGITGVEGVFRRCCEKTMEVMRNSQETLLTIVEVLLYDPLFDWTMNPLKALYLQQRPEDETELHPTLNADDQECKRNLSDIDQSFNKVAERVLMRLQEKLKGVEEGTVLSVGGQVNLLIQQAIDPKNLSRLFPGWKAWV

SMILES | IC50 [1] | IC50 (ATM inhibitory activity)
CN1CCCC(Nc2ccc3c(c2)Cc2cccc(-c4cc(N5CCOCC5)cc(=O)[nH]4)c2O3)C1 (stereo not shown) [Example 2-7-1, 6-(7-((1-methylpiperidin-3-yl)amino)-9H-xanthen-4-yl)-4-morpholinopyridin-2(1H)-one] | 500 to 2000 nM | –
CCOc1ccc(CNc2ccc3c(c2)Cc2cccc(-c4cc(N5CCOCC5)cc(=O)[nH]4)c2O3)cn1 [Example 2-2-23, 6-(7-(((6-Ethoxypyridin-3-yl)methyl)amino)-9H-xanthen-4-yl)-4-morpholino pyridin-2(1H)-one] | 100 to 500 nM | –
Cc1cncc(C(C)Nc2ccc3c(c2)Cc2cccc(-c4cc(N5CCOCC5)cc(=O)[nH]4)c2O3)c1 (single isomer, unassigned) [Example 2-14-88-2, 6-(7-((1-(5-methylpyridin-3-yl)ethyl)amino)-9H-xanthen-4-yl)-4-morpholinopyridin-2(1H)-one] | 100 to 500 nM | –
Cc1ccc(C(Nc2ccc3c(c2)Sc2cccc(-c4cc(N5CCOCC5)cc(=O)[nH]4)c2S3)[C@@H]2CCCN2C)nc1 (single isomer, unassigned) [Example 1-56-2] | 100 to 500 nM | –
CC(Nc1ccc2c(c1)Sc1cccc(-c3cc(N4CCOCC4)cc(=O)[nH]3)c1S2)c1cc(C#N)ncn1 (stereo not shown) [Example 1-12-84, 6-(1-((6-(4-Morpholino-6-oxo-1,6-dihydropyridin-2-yl)thianthren-2-yl)amino)ethyl)pyrimidine-4-carbonitrile] | 100 to 500 nM | –
COc1ccc(CCN2CCC(Nc3ccc4c(c3)Cc3cccc(-c5cc(N6CCOCC6)cc(=O)[nH]5)c3O4)CC2)cc1 [Example 2-30-2, 6-(7-((1-(4-Methoxyphenethyl)piperidin-4-yl)amino)-9H-xanthen-4-yl)-4-morpholino pyridin-2 (1H)-one] | 100 to 500 nM | –
COCCN1CCOC(C(Nc2ccc3c(c2)Sc2cccc(-c4cc(N5CCOCC5)cc(=O)[nH]4)c2S3)c2ccc(C)cn2)C1 (single isomer, unassigned) [Example 1-56-9, 6-(7-(((4-(2-Methoxyethyl)morpholin-2-yl)(5-methylpyridin-2-yl)methyl)amino)thianthren-1-yl)-4-morpholino pyridin-2(1H)-one] | < 100 nM | –
O=c1cc(N2CCOCC2)cc(-c2cccc3c2Sc2ccc(N4CC4CN4CCOCC4)cc2S3)[nH]1 (stereo not shown) [Example 1-38, 4-morpholino-6-(7-(2-(morpholinomethyl)aziridin-1-yl)thianthren-1-yl)pyridin-2(1H)-one] | – | 100 to 500 nM
Cc1ccc(CN2CCC(Nc3ccc4c(c3)Cc3cccc(-c5cc(N6CCOCC6)cc(=O)[nH]5)c3O4)CC2)nc1 [Example 2-28-22, 6-(7-((1-((5-Methylpyridin-2-yl)methyl)piperidin-4-yl)amino)-9H-xanthen-4-yl)-4-morpholino pyridin-2(1H)-one] | 100 to 500 nM | –

Now from value to compound, other results behind:

IC50 [1] | SMILES | IC50 (ATM inhibitory activity)
< 100 nM | Cc1cnc(C(CCN(C)C)Nc2ccc3c(c2)Cc2cccc(-c4cc(N5CCOCC5)cc(=O)[nH]4)c2O3)cn1 (single isomer, unassigned) [Example 12-4, 6-(7-((3-(Dimethylamino)-1-(5-methylpyrazin-2-yl)propyl)amino)-9H-xanthen-4-yl)-4-morpholinopyridin-2(1H)-one] | –
100 to 500 nM | COC[C@H](CN1CCOCC1)Nc1ccc2c(c1)Cc1cccc(-c3cc(N4CCOCC4)cc(=O)[nH]3)c1O2 [Example 12-5, (S)-6-(7-((1-methoxy-3-morpholinopropan-2-yl)amino)-9H-xanthen-4-yl)-4-morpholinopyridin-2(1H)-one] | –
500 to 2000 nM | COCCN1CCC(Nc2ccc3c(c2)Cc2cccc(-c4cc(N5CCOCC5)cc(=O)[nH]4)c2O3)CC1 [Example 2-29, 6-(7-((1-(2-Methoxyethyl)piperidin-4-yl)amino)-9H-xanthen-4-yl)-4-morpholinopyridin-2(1H)-one] | –
500 to 2000 nM | CN(c1ccc2c(c1)Sc1cccc(-c3cc(N4CCOCC4)cc(=O)[nH]3)c1S2)C1CCCNC1 (stereo not shown) [Example 1-30, 6-(7-(methyl(piperidin-3-yl)amino)thianthren-1-yl)-4-morpholinopyridin-2(1H)-one] | –
